In brackets after ≈: the same amount, converted by molar mass. Read-outs that look alike come from different tables or passages of the source.
Key:
[1] = test system: M. tb; experiment: MIC of anti infective drugs alone and with potentiators; type: cell-based, Mycobacterium tuberculosis; settings: for MIC Drug + potentiator: Ciprofloxacin + potentiator; for % decrease in MIC: Ciprofloxacin + potentiator vs drug alone; for MIC: Mycobacterium tuberculosis, drug alone
[2] = test system: Gm +ve bacteria; experiment: microbe, parasite or virus in culture; type: cell-based, Gram positive; settings: for MIC: drug alone, Gm +ve bacteria
[3] = test system: Gm −ve bacteria; experiment: microbe, parasite or virus in culture; type: cell-based, Gram negative; settings: for MIC: read-out: MIC Drug alone
[4] = test system: M. tuberculosis H37Rv; experiment: MIC by checkerboard method; type: cell-based, Mycobacterium tuberculosis; settings: for MIC: Mycobacterium tuberculosis, Rifampicin alone
[5] = test system: M. intracellure ATCC 13950; experiment: MIC by checkerboard method; type: cell-based
[6] = test system: M. tuberculosis 611; experiment: MIC by checkerboard method; type: cell-based, Mycobacterium tuberculosis
Description: (§1) This checkerboard technique can be performed with liquid or semisolid (agar) media.
(§2) In this method the agar (Mueller Hinton agar, Middlebrook 7H10 agar) was autoclaved and allowed to cool to 55° C. to 50° C. The combination of the standard drug and the potentiator was added to the agar. Serial two fold dilutions of each of standard drug and the potentiator were prepared in appropriate solvents. In order to maintain the desired concentrations of both agar and drugs, and to rule out the effect of solvent, the volume of solvent (containing standard drug or potentiator) added to agar was kept small (i.e ≦5% of the total volume). After the agar plates have been poured and allowed to dry, the bacteria to be tested were applied to the surface of agar with a replicating device designed to deliver a standard inoculum (approx 10^4 cfu|spot). The plates were incubated at 37° C. for 24 hrs (3 weeks in case of Mycobacterium tuberculosis)
(§3) The above-mentioned checkerboard was also performed with liquid media in a microtiter plate format. This method was used to study the combination of antibacterial/antifungal/antiviral drugs with potentiator.

[7] = test system: M. tuberculosis 615; experiment: MIC by checkerboard method; type: cell-based, Mycobacterium tuberculosis
Description: as §1, §2, §3

[8] = test system: M. avium ATCC 49601; experiment: MIC by checkerboard method; type: cell-based
[9] = test system: MRSA 33; experiment: MIC by checkerboard method; type: cell-based; settings: Staphylococcus aureus, S aureus MRSA 33
[10] = test system: B cereus RRL 101; experiment: MIC by checkerboard method; type: cell-based
[11] = test system: MRSA; experiment: MIC by checkerboard method, comparison with piperine; type: cell-based, Staphylococcus aureus; settings: Tables 5A/5B; for MIC: Staphylococcus aureus
[12] = test system: S epidermidis ATCC 12228; experiment: MIC by checkerboard method; type: cell-based
[13] = test system: MRSA 450; experiment: MIC by checkerboard method; type: cell-based; settings: Staphylococcus aureus, S aureus MRSA 450
[14] = test system: S aureus ATCC 29213; experiment: MIC by checkerboard method; type: cell-based, Staphylococcus aureus; settings: for MIC: Staphylococcus aureus; for MIC Amikacin / MIC Ciprofloxacin: Tables 5A/5B
[15] = test system: Staphylococcus aureus ATCC 29213; experiment: Systemic infection model of mice; type: in vivo, Swiss albino mice; settings: ATCC29213, iv, read-out: ED50 for ciprofloxacin
Description: The study was conducted to see the in vivo response of ciprofloxacin in combination with the above-mentioned potentiator. The Swiss albino mice were infected intravenously with Staphylococcus aureus ATCC 29213 (10^7 CFU/mouse). The infected mice were divided in groups and each group consisted of 6 mice. The treatment consisted of one dose i.e. 5 or 10 or 20 mg/kg immediately after the infection followed by the next dose after a gap of 6 hrs. The result was recorded as number of survivals each day.

[16] = with compound of formula 1a 0.09 μg/ml
[17] = with compound of formula 1a 0.78 μg/ml
[18] = with compound of formula 1a 6.25 μg/ml
[19] = with compound of formula 1a 50.0 μg/ml
[20] = Amikacin alone, read-out: MIC of Amikacin
[21] = Ciprofloxacin alone, read-out: MIC Ciprofloxacin
[22] = with the labelled potentiator +6.25 μg/ml
[23] = with the labelled potentiator +12.5 μg/ml
[24] = with the labelled potentiator +25.0 μg/ml
[25] = with the labelled potentiator +50.0 μg/ml
[26] = Mycobacterium tuberculosis, Rifampicin alone

CCC(/C=C/C(=O)N1CCCCC1)=C\c1ccc(OC)c(OC)c1 [4-ethyl-5-(3,4-dimethoxyphenyl)-2E,4E-pentadienoic acid piperidide]
MIC Drug + potentiator [1]: 0.25 to 0.5 µg/mL
% decrease in MIC [1]: 50%
% decrease in MIC [2]: 50-76%
MIC Drug + potentiator [2]: 0.06 to 8 µg/mL
% decrease in MIC [3]: 0-50%
MIC Drug + potentiator [3]: 0.03 to 0.25 µg/mL

CCC(/C=C/C(=O)N1CCCCC1)=C\c1cc2c(c([N+](=O)[O-])c1)OCO2 [5-(3,4-methylenedioxy-5-nitrophenyl)-4-ethyl-2E,4E-pentadienoic acid piperidide]
% decrease in MIC [2]: 0-50%
MIC Drug + potentiator [2]: 0.03 to 0.25 µg/mL

CCC(/C=C/C(=O)N1CCCC1)=C\c1ccc2c(c1)OCO2 [5-(3,4-methylenedioxyphenyl)-4-ethyl-2E,4E-pentadienoic acid pyrrolidide]
MIC of Rifampicin ([4]; with compound of formula 1a 0.09 μg/ml, M. tuberculosis H37Rv): 0.03 µg/mL
MIC of Rifampicin ([4]; with compound of formula 1a 0.78 μg/ml, M. tuberculosis H37Rv): 0.03 µg/mL
MIC of Rifampicin ([4]; with compound of formula 1a 6.25 μg/ml, M. tuberculosis H37Rv): 0.03 µg/mL
MIC of Rifampicin ([4]; with compound of formula 1a 50.0 μg/ml, M. tuberculosis H37Rv): 0.03 µg/mL
MIC of Rifampicin [5, 16]: 2.0 µg/mL
MIC of Rifampicin [5, 17]: 1.0 µg/mL
MIC of Rifampicin [5, 18]: 1.0 µg/mL
MIC of Rifampicin [5, 19]: 1.0 µg/mL
MIC of Rifampicin [6, 16]: 0.03 µg/mL
MIC of Rifampicin [6, 17]: 0.03 µg/mL
MIC of Rifampicin [6, 18]: 0.03 µg/mL
MIC of Rifampicin [6, 19]: 0.03 µg/mL
MIC of Rifampicin [7, 16]: 0.03 µg/mL
MIC of Rifampicin [7, 17]: 0.03 µg/mL
MIC of Rifampicin [7, 18]: 0.03 µg/mL
MIC of Rifampicin [7, 19]: 0.03 µg/mL
MIC of Rifampicin [8, 16]: 2.0 µg/mL
MIC of Rifampicin [8, 17]: 2.0 µg/mL
MIC of Rifampicin [8, 18]: 1.0 µg/mL
MIC of Rifampicin [8, 19]: 1.0 µg/mL

CCC(/C=C/C(=O)N1CCC(O)CC1)=C\c1ccc2c(c1)OCO2 [5-(3,4-methylenedioxyphenyl)-4-ethyl-2E,4E-pentadienoic acid-4-hydroxypiperidide]
% decrease in MIC [2]: 0-50%
MIC Drug + potentiator [2]: 0.03 to 0.25 µg/mL

CCC(CCC(=O)N1CCCCC1)Cc1ccc2c(c1)OCO2 (stereo not shown) [5-(3,4-methylenedioxyphenyl)-4-ethyl-pentanoic acid piperidide]
% decrease in MIC [2]: 0-50%
MIC Drug + potentiator [2]: 0.03 to 0.25 µg/mL

CC(/C=C/C(=O)NC(C)c1ccc(Br)cc1)=C\c1ccc2c(c1)OCO2 (stereo not shown) [5-(3,4-methylenedioxyphenyl)-4-methyl-2E,4E-pentadienoic acid-1-(4-bromophenyl)ethylamide]
MIC Drug + potentiator [1]: 0.25 to 0.5 µg/mL
% decrease in MIC [1]: 50%
% decrease in MIC [2]: 50-76%
MIC Drug + potentiator [2]: 0.06 to 8 µg/mL
% decrease in MIC [3]: 0-50%
MIC Drug + potentiator [3]: 0.03 to 0.25 µg/mL

CC(/C=C/C(=O)N1CCN(C)CC1)=C\c1ccc2c(c1)OCO2 [5-(3,4-methylenedioxyphenyl)-4-methyl-2E,4E-pentadienoic acid-N-methylpiperazide]
% decrease in MIC [2]: 50-76%
MIC Drug + potentiator [2]: 0.06 to 0.12 µg/mL

CCCCC(/C=C/C(=O)N1CCCCC1)=C\c1ccc2c(c1)OCO2 [5-(3,4-methylenedioxyphenyl)-4-n-butyl-2E,4E-pentadienoic acid piperidide]
MIC Drug + potentiator [1]: 0.25 to 0.5 µg/mL
% decrease in MIC [1]: 50%
% decrease in MIC [2]: 50-76%
MIC Drug + potentiator [2]: 0.06 to 8 µg/mL
% decrease in MIC [3]: 0-50%
MIC Drug + potentiator [3]: 0.03 to 0.25 µg/mL

NCC[C@H](O)C(=O)N[C@@H]1C[C@H](N)[C@@H](O[C@H]2O[C@H](CN)[C@@H](O)[C@H](O)[C@H]2O)[C@H](O)[C@H]1O[C@H]1O[C@H](CO)[C@@H](O)[C@H](N)[C@H]1O [Amikacin, reference compound]
MIC [9, 20]: 8 µg/mL
MIC [10, 20]: 1 µg/mL
MIC ([11]; Amikacin alone, read-out: MIC Amikacin): 4 µg/mL
MIC [12, 20]: 1 µg/mL
MIC [13, 20]: 16 µg/mL
MIC ([14]; ATCC29213, Amikacin alone, read-out: MIC of Amikacin): 2 µg/mL
MIC ([14]; ATCC29213, Tables 5A/5B, Amikacin alone, read-out: MIC Amikacin): 2 µg/mL

O=C(O)c1cn(C2CC2)c2cc(N3CCNCC3)c(F)cc2c1=O [Ciprofloxacin, reference compound]
MIC [9, 21]: 32 µg/mL
MIC [10, 21]: 0.12 µg/mL
MIC [11, 21]: 32 µg/mL
MIC [12, 21]: 0.12 µg/mL
MIC [13, 21]: 32 µg/mL
ED50 [15]: 9.2 mg/kg
MIC [1]: 0.5 to 1 µg/mL
MIC ([14]; ATCC29213, Ciprofloxacin alone, read-out: MIC Ciprofloxacin): 0.25 µg/mL
MIC ([14]; ATCC29213, Tables 5A/5B, Ciprofloxacin alone, read-out: MIC Ciprofloxacin): 0.25 µg/mL
MIC [3]: 0.03 to 0.5 µg/mL (≈ 0.0905 to 1.51 µM)

CCN(CC)C(=O)/C=C/C(C)=C/c1ccc2c(c1)OCO2 [Formula 1a, R = CH3, do, R5 = R6 = C2H5, 5-(3,4-methylenedioxyphenyl)-4-methyl-2E,4E-pentadienoic acid-N,N-diethylamide]
% decrease in MIC [2]: 50-76%
MIC Drug + potentiator [2]: 0.06 to 0.12 µg/mL

CCn1cc(C(=O)O)c(=O)c2cc(F)c(N3CCNCC3)cc21 [Norfloxacin, reference compound]
MIC [2]: 0.12 to 32 µg/mL (≈ 0.376 to 100 µM)
MIC Drug alone ([3]; drug alone, Gm −ve bacteria): 0.03 to 64 µg/mL

CC1COc2c(N3CCN(C)CC3)c(F)cc3c(=O)c(C(=O)O)cn1c23 (stereo not shown) [Ofloxacin, reference compound]
MIC [1]: 0.5 to 2.5 µg/mL
MIC [2]: 12 to 32 µg/mL (≈ 33.2 to 88.6 µM)
MIC ([3]; drug alone, Gm −ve bacteria): 0.06 to 32 µg/mL (≈ 0.166 to 88.6 µM)

O=C(/C=C/C=C/c1ccc2c(c1)OCO2)N1CCCCC1 [Piperine, reference compound]
MIC ([11]; with the labelled potentiator +6.25 μg/ml, read-out: MIC Mupirocin): 0.12 µg/mL
MIC ([11]; with the labelled potentiator +12.5 μg/ml, read-out: MIC Mupirocin): 0.12 µg/mL
MIC ([11]; with the labelled potentiator +25.0 μg/ml, read-out: MIC Mupirocin): 0.06 µg/mL
MIC ([11]; with the labelled potentiator +50.0 μg/ml, read-out: MIC Mupirocin): 0.06 µg/mL
MIC Amikacin [11, 22]: 4.0 µg/mL
MIC Ciprofloxacin [11, 22]: 32 µg/mL
MIC Amikacin [11, 23]: 4.0 µg/mL
MIC Ciprofloxacin [11, 23]: 32 µg/mL
MIC Amikacin [11, 24]: 4.0 µg/mL
MIC Ciprofloxacin [11, 24]: 32 µg/mL
MIC Amikacin [11, 25]: 4.0 µg/mL
MIC Ciprofloxacin [11, 25]: 16 µg/mL
MIC Rifampicin ([4]; Tables 5A/5B, with the labelled potentiator +6.25 μg/ml, M tuberculosis H37Rv): 0.12 µg/mL
MIC Rifampicin ([4]; Tables 5A/5B, with the labelled potentiator +12.5 μg/ml, M tuberculosis H37Rv): 0.06 µg/mL
MIC Rifampicin ([4]; Tables 5A/5B, with the labelled potentiator +25.0 μg/ml, M tuberculosis H37Rv): 0.06 µg/mL
MIC ([14]; ATCC29213, Tables 5A/5B, with the labelled potentiator +6.25 μg/ml, read-out: MIC Mupirocin): 0.12 µg/mL
MIC ([14]; ATCC29213, Tables 5A/5B, with the labelled potentiator +12.5 μg/ml, read-out: MIC Mupirocin): 0.12 µg/mL
MIC ([14]; ATCC29213, Tables 5A/5B, with the labelled potentiator +25.0 μg/ml, read-out: MIC Mupirocin): 0.06 µg/mL
MIC ([14]; ATCC29213, Tables 5A/5B, with the labelled potentiator +50.0 μg/ml, read-out: MIC Mupirocin): 0.06 µg/mL
MIC Amikacin [14, 22]: 2.0 µg/mL
MIC Ciprofloxacin [14, 22]: 0.25 µg/mL
MIC Amikacin [14, 23]: 1.0 µg/mL
MIC Ciprofloxacin [14, 23]: 0.25 µg/mL
MIC Amikacin [14, 24]: 0.5 µg/mL
MIC Ciprofloxacin [14, 24]: 0.12 µg/mL
MIC Amikacin [14, 25]: 0.25 µg/mL
MIC Ciprofloxacin [14, 25]: 0.12 µg/mL

CO[C@H]1/C=C/O[C@@]2(C)Oc3c(C)c(O)c4c(O)c(c(/C=N/N5CCN(C)CC5)c(O)c4c3C2=O)NC(=O)/C(C)=C\C=C\[C@H](C)[C@H](O)[C@@H](C)[C@@H](O)[C@@H](C)[C@H](OC(C)=O)[C@@H]1C [Rifampicin, reference compound]
MIC ([4]; M. tuberculosis H37Rv, read-out: MIC of Rifampicin): 0.12 µg/mL
MIC ([4]; Tables 5A/5B, M tuberculosis H37Rv, read-out: MIC Rifampicin): 0.12 µg/mL
MIC ([5]; Rifampicin alone): 2 µg/mL
MIC [6, 26]: 0.06 µg/mL
MIC [7, 26]: 0.06 µg/mL
MIC ([8]; Mycobacterium avium, ATCC49601, Rifampicin alone): 2 µg/mL

Reference: patent US8580752B2, “Aromatic amides as potentiators of bioefficacy of anti-infective drugs” (priority 2005, dated 2013)
